Where a SMILES comes first, the peptide text is derived from it. Where no end group is shown, it is not given here.
Assay: Biosimilar mucus-permeating assay, in vitro cell-free model
Assay type: in vitro ADME
Details: peptide 1 mM, OPA method; for Mucus permeability (in words): cell-free biosimilar mucus model, PBS pH 7.2, 25 ℃, verbal grade; for Final cumulative mucus permeability at 240 min / Cumulative mucus permeability at 60 min: cell-free, biosimilar mucus (0.3% PAA, 5% mucin, 3.1% BSA, 0.6% lipid mixture, Tween 80) on 10 KDa centrifugal filter, 1 mL, PBS pH 7.2, 470× g, 25 ℃, mean ± SEM, at least three times in triplicate
Experimental: An in vitro cell-free model was established in this study for the quantification of mucus-permeating property of peptides. Biosimilar mucus used in the model consisted of 0.3% (w/v) PAA, 5% (w/v) mucin, 3.1% (w/v) BSA, 0.6% (w/v) lipid mixture including 0.06% (w/v) linoleic acid, 0.36% (w/v) cholesterol, 0.18% (w/v) phosphatidylcholine, and Tween 80 (25% of lipid mixture, w/w). First, the lipid was mixed with Tween 80, whereafter PBS buffer with 150 mM NaCl (5 mM, pH 7.2) was slowly added under magnetic stirring (Cimarec, ThermoFisher Scientific, Waltham, MA USA). On the other hand, PAA was dissolved in PBS buffer prior to the addition of mucin under stirring, and pH adjusted to 7.0 using NaOH (1 M). After mixing the lipids and mucin suspension, BSA was added to finalize the biosimilar mucus and the pH was adjusted to 7.4. The mucus mixture was stored overnight at 4 ℃ before dialyzing (Fisherbrand Regenerated Cellulose Dialysis Tubing, MWCOs from 3500 to 14,000 Daltons) for 72 h against PBS buffer (5 mM, pH 7.2) containing 150 mM NaCl to remove unbound lipids and contaminating proteins from BSA. Mucus-permeating assay was conducted by firstly adding 3.8 mL of dialyzed mucus suspensions to the filter of the centrifugal unit (4 mL, 10 KDa cutoff, Amicon Ultra, Millipore Sigma) followed by centrifugation at 2935× g for 15 min to make the mucus settle down and completely cover the entire membrane before adding peptide solutions (1 mM, 1 mL) or 1 mL of PBS buffer as blank. Afterwards, the permeate during centrifugation at 25 ℃ and 470× g was collected every 15 min for 4 h. The peptide content in the permeate was measured using the OPA method. The mucus permeability of the peptides was quantified using Equation (2). (2) P=np−nb/nT×100 PP is the percentage permeability, np represents the permeated peptides (µmol), nb is the blank (µmol), and nT is the total loaded peptide amount (µmol).

Compound	Mucus permeability (in words)	Final cumulative mucus permeability at 240 min [%]	Cumulative mucus permeability at 60 min [%]
QIGLF [Pep7, QIGLF]	low mucus permeability	51 ± 9	–
C[C@@H](O)[C@H](N)C(=O)N[C@@H](CC(N)=O)C(=O)NCC(=O)N[C@@H](CCC(N)=O)C(=O)O [Pep4, TNGQ] (H-TNGQ-OH)	high mucus permeability	142 ± 35	96 ± 30
KIPAVF [Pep1, KIPAVF]	low mucus permeability	23 ± 6	–
CC(C)C[C@H](NC(=O)[C@H](CO)NC(=O)[C@H](C)NC(=O)[C@@H]1CCCN1)C(=O)O [Pep6, PASL] (H-PASL-OH)	high mucus permeability	92 ± 27	40 ± 17
CSCC[C@H](NC(=O)[C@@H](N)CCCCN)C(=O)N1CCC[C@H]1C(=O)N[C@H](C(=O)O)C(C)C [Pep5, KMPV] (H-KMPV-OH)	low mucus permeability	13 ± 2	–
CSCC[C@H](N)C(=O)N[C@@H](C)C(=O)N[C@@H](CC(N)=O)C(=O)N[C@H](C(=O)O)[C@@H](C)O [Pep2, MANT] (H-MANT-OH)	low mucus permeability	21 ± 5	–
CSCC[C@H](NC(=O)[C@@H](N)Cc1ccc(O)cc1)C(=O)N[C@@H](CO)C(=O)N[C@H](C(=O)O)C(C)C [Pep3, YMSV] (H-YMSV-OH)	low mucus permeability	44 ± 12	–

— article PMC8774657, “Peptide-Mucin Binding and Biosimilar Mucus-Permeating Properties” (Gels, 2021)
